Measured values reported in ChEMBL document CHEMBL4359906, “Design and synthesis of new N-terminal fatty acid modified-antimicrobial peptide analogues with potent in vitro biological activity” (Eur J Med Chem, 2019).
Active and inactive are the calls of the source. No cut-off for these calls is given here.

Assays:
[1] = system: Escherichia coli; assay: Antibacterial activity against Escherichia coli ATCC 25922 after 18 hrs in presence of MgCl2 by CLSI based broth microdilution method (reference value: 8 microM); type: functional; settings: ATCC 25922, 18 h
[2] = Selectivity index, ratio of MHC10 for human RBC to geometric mean of peptide MIC for gram positive bacteria; type: toxicity; settings: human red blood cells, read-out: Selectivity Index
[3] = system: Staphylococcus aureus; assay: Antibacterial activity against Staphylococcus aureus ATCC 25923 after 18 hrs in presence of MgCl2 by CLSI based broth microdilution method (reference value: 8 microM); type: functional; settings: ATCC 25923, 18 h
[4] = system: Escherichia coli; assay: Antibiofilm activity against Escherichia coli ATCC 25922 assessed as reduction in biofilm inhibition at MIC after 24 hrs by crystal violet staining based assay relative to control; type: functional
[5] = system: Staphylococcus aureus; assay: Antibacterial activity against Staphylococcus aureus ATCC 25923 after 18 hrs in presence of NaCl by CLSI based broth microdilution method (reference value: 8 microM); type: functional; settings: ATCC 25923, 18 h
[6] = system: Escherichia coli; assay: Antimicrobial activity against Escherichia coli ATCC 25922 at 1 mM preincubated for 6 hrs in presence of 2 ug/ml chymotrypsin and measured after 18 hrs by microplate reader analysis; type: functional, organism-based
[7] = Cytotoxicity against mouse RAW264.7 cells assessed as cell proliferation at 4 uM after 1 hr by MTT assay relative to control; type: cell-based; settings: read-out: Activity
[8] = system: Escherichia coli; assay: Antibacterial activity against Escherichia coli ATCC 25922 after 18 hrs in presence of NaCl by CLSI based broth microdilution method (reference value: 8 microM); type: functional; settings: ATCC 25922, 18 h
[9] = system: Staphylococcus aureus; assay: Antibacterial activity against Staphylococcus aureus ATCC 25923 after 18 hrs in presence of FeCl3 by CLSI based broth microdilution method (reference value: 8 microM); type: functional; settings: ATCC 25923, 18 h
[10] = system: Escherichia coli; assay: Antimicrobial activity against Escherichia coli ATCC 25922 preincubated for 1 hr in presence of 10% mouse serum and measured after 18 hrs by CLSI-based broth microdilution assay (reference value: 8 microM); type: functional
[11] = system: Escherichia coli; assay: Ratio of MIC for Escherichia coli ATCC 25922 preincubated for 6 hrs in presence of 10% mouse serum and measured after 18 hrs to MIC for antibacterial activity against Escherichia coli ATCC 25922 after 18 hrs; type: functional
[12] = system: Escherichia coli; assay: Disruption of membrane integrity in Escherichia coli ATCC 25922 assessed as membrane damage by measuring PI fluorescence incubated for 1 hr by PI dye based flow cytometric analysis; type: functional, organism-based
[13] = system: Escherichia coli; assay: Ratio of antibacterial activity against Escherichia coli ATCC 25922 in presence of KCl to antibacterial activity against Escherichia coli ATCC 25922; type: functional
[14] = system: Staphylococcus aureus; assay: Antibiofilm activity against Staphylococcus aureus ATCC 25923 at 1 to 2 times of MIC after 24 hrs by crystal violet staining based assay; type: functional, organism-based
[15] = system: Escherichia coli; assay: Antibacterial activity against Escherichia coli ATCC 25922 after 18 hrs in presence of KCl by CLSI based broth microdilution method (reference value: 8 microM); type: functional; settings: ATCC 25922, 18 h
[16] = system: Pseudomonas aeruginosa; assay: Antibiofilm activity against Pseudomonas aeruginosa ATCC 27853 after 24 hrs by crystal violet staining based assay; type: functional, organism-based
[17] = system: Escherichia coli; assay: Antimicrobial activity against Escherichia coli ATCC 25922 preincubated for 6 hrs in presence of 10% mouse serum and measured after 18 hrs by CLSI-based broth microdilution assay (reference value: 8 microM); type: functional
[18] = system: Staphylococcus aureus; assay: Antibacterial activity against Staphylococcus aureus ATCC 25923 after 18 hrs in presence of KCl by CLSI based broth microdilution method (reference value: 8 microM); type: functional; settings: ATCC 25923, 18 h
[19] = system: Escherichia coli; assay: Antibacterial activity against Escherichia coli ATCC 25922 after 18 hrs in presence of FeCl3 by CLSI based broth microdilution method (reference value: 8 microM); type: functional; settings: ATCC 25922, 18 h
[20] = system: Staphylococcus aureus; assay: Antibiofilm activity against Staphylococcus aureus ATCC 25923 at 2 times of MIC after 24 hrs by crystal violet staining based assay; type: functional, organism-based
[21] = system: Escherichia coli; assay: Antimicrobial activity against Escherichia coli ATCC 25922 preincubated for 6 hrs in presence of 10% mouse serum and measured after 18 hrs by CLSI-based broth microdilution assay (reference value: 16 microM); type: functional
[22] = system: Escherichia coli; assay: Antibacterial activity against Escherichia coli ATCC 25922 after 18 hrs in presence of NaCl by CLSI based broth microdilution method (reference value: 16 microM); type: functional; settings: ATCC 25922, 18 h
[23] = system: Escherichia coli; assay: Antibacterial activity against Escherichia coli ATCC 25922 after 18 hrs in presence of KCl by CLSI based broth microdilution method (reference value: 16 microM); type: functional; settings: ATCC 25922, 18 h
[24] = system: Escherichia coli; assay: Antibacterial activity against Escherichia coli ATCC 25922 after 18 hrs in presence of MgCl2 by CLSI based broth microdilution method (reference value: 16 microM); type: functional; settings: ATCC 25922, 18 h
[25] = system: Escherichia coli; assay: Antibacterial activity against Escherichia coli ATCC 25922 after 18 hrs in presence of FeCl3 by CLSI based broth microdilution method (reference value: 16 microM); type: functional; settings: ATCC 25922, 18 h
[26] = system: Escherichia coli; assay: Antibiofilm activity against Escherichia coli ATCC 25922 assessed as reduction in biofilm inhibition at 0.5 to 1 times of MIC after 24 hrs by crystal violet staining based assay; type: functional, organism-based
[27] = system: Escherichia coli; assay: Antimicrobial activity against Escherichia coli ATCC 25922 preincubated for 1 hr in presence of 10% mouse serum and measured after 18 hrs by CLSI-based broth microdilution assay (reference value: 16 microM); type: functional
[28] = Hemolytic activity in human RBC at 256 uM measured after 1 hr by microplate reader analysis relative to control; type: ADME, cell-based, Erythrocyte; settings: human red blood cells (erythrocytes), read-out: Activity

Row | Structure (SMILES) | MIC [1] | selectivity ratio [2] | MIC [3] | inhibition (INH) [4] | MIC [5] | Activity [6] | MIC [8] | MIC [9] | MIC [10] | Ratio [11] | Activity [12] | Ratio [13] | inhibition [14] | MIC [15] | inhibition [16] | MIC [17] | MIC [18] | MIC [19] | other results
1 | CCCCCCCCCC(=O)NC(Cc1cn(CCCC[C@H](NC(C)=O)C(=O)NCC(=O)N[C@@H](CC(C)C)C(=O)N[C@@H](CC(C)C)C(=O)N[C@H](CCCCN)C(=O)N[C@@H](CCCNC(=N)N)C(=O)N[C@H](C(=O)N[C@H](CCCCN)C(=O)N[C@H](C(=O)N[C@@H](CC(C)C)C(=O)N[C@@H](CC(C)C)C(N)=O)[C@@H](C)O)[C@@H](C)CC)nn1)C(=O)NCC(=O)N[C@@H](CC(C)C)C(=O)N[C@@H](CC(C)C)C(=O)N[C@H](CCCCN)C(=O)N[C@@H](CCCNC(=N)N)C(=O)N[C@H](C(=O)N[C@H](CCCCN)C(=O)N[C@H](C(=O)N[C@@H](CC(C)C)C(=O)N[C@@H](CC(C)C)C(N)=O)[C@@H](C)O)[C@@H](C)CC (some centres not stated) | 16 µM | 3.69 | 4 µM | >50% | 8 µM | Active | 8 µM | 8 µM | 8 µM | 2 | Dose-dependent effect | 2 - 4 | Active | 16 µM | Dose-dependent effect | 16 µM | 16 µM | 4 µM | viability at 1 h, 4 µM [7]: < 80%
2 | CCCCCCCCCC(=O)NCC(=O)N[C@@H](CC(C)C)C(=O)N[C@@H](CC(C)C)C(=O)N[C@H](CCCCN)C(=O)N[C@@H](CCCNC(=N)N)C(=O)N[C@H](C(=O)N[C@H](CCCCN)C(=O)N[C@H](C(=O)N[C@@H](CC(C)C)C(=O)N[C@@H](CC(C)C)C(N)=O)[C@@H](C)O)[C@@H](C)CC | – | 8 | 8 µM | – | 8 µM | Active | – | 8 µM | – | 1 | Dose-dependent effect | 2 - 4 | – | – | Dose-dependent effect | – | 8 µM | – | inhibition [20]: Active; MIC [21]: 16 µM; MIC [22]: 32 µM; MIC [23]: 16 µM; MIC [24]: 16 µM; MIC [25]: 8 µM; inhibition [26]: Active; MIC [27]: 16 µM
3 | CCCCCC(=O)NC(Cc1cn(CCCC[C@H](NC(C)=O)C(=O)NCC(=O)N[C@@H](CC(C)C)C(=O)N[C@@H](CC(C)C)C(=O)N[C@H](CCCCN)C(=O)N[C@@H](CCCNC(=N)N)C(=O)N[C@H](C(=O)N[C@H](CCCCN)C(=O)N[C@H](C(=O)N[C@@H](CC(C)C)C(=O)N[C@@H](CC(C)C)C(N)=O)[C@@H](C)O)[C@@H](C)CC)nn1)C(=O)NCC(=O)N[C@@H](CC(C)C)C(=O)N[C@@H](CC(C)C)C(=O)N[C@H](CCCCN)C(=O)N[C@@H](CCCNC(=N)N)C(=O)N[C@H](C(=O)N[C@H](CCCCN)C(=O)N[C@H](C(=O)N[C@@H](CC(C)C)C(=O)N[C@@H](CC(C)C)C(N)=O)[C@@H](C)O)[C@@H](C)CC (some centres not stated) | 16 µM | 11.6 | – | >50% | – | Active | 32 µM | – | 8 µM | 2 | Dose-dependent effect | 2 - 4 | Active | 16 µM | Dose-dependent effect | 16 µM | – | 4 µM | hemolysis at 1 h, 256 µM [28]: < 5%
